Test results as given in patent publication US20210353648A1, “GRAPIPRANT UNIT DOSAGE FORMS” (Arrys Therapeutics, Inc., priority 2018, published 2021).
Read-outs that look alike come from different tables or passages of the source.

Experiment: Phase 1 single ascending dose study of grapiprant OPC: pharmacokinetics
Assay type: in vivo, human
Details: for AUC(0-t) / Cmax / AUC(0-inf) / Tmax / half-life: human, oral, serum
Experimental: Eligible subjects were to be enrolled into 8 sequential cohorts, corresponding to the planned dose levels of 1 mg, 3 mg, 10 mg, 30 mg, 100 mg, 300 mg, 600 mg, and 1000 mg. […] After determining a maximum tolerated dose (MTD), or after completing the highest dose cohort if a MTD was not determined, Cohort 11 would be enrolled to increase the number of subjects evaluated at the MTD (or the highest dose).
In each dosing period, subjects were confined to the Clinical Research Unit (CRU) for approximately 60 hours (from approximately 36 hours predose through 24 hours postdose), and were instructed to return to the study site at 48 hours postdose for collection of blood samples for safety and pharmacokinetic evaluations. Subjects had triplicate ECG measurements made at select time-points on Day 0 (to provide a time-matched baseline) and through 24 hours postdose. Continuous cardiac monitoring by telemetry was performed for 12 hours postdose (or up to 24 hours, if warranted, based on the pharmacokinetic data). Creatine phosphokinase (CPK; total CPK and CPK-MB isoenzyme) and troponin I levels were monitored predose and at 12 and 24 hours postdose. In each dosing period, blood samples were collected predose and at 0.5, 1, 1.5, 2, 2.5, 3, 4, 6, 8, 12, 16, 24, and 48 hours postdose for pharmacokinetic evaluation. Fecal occult blood was monitored predose and through 48 hours postdose. Urine was collected through 24 hours postdose for exploratory biotransformation analyses. Since grapiprant may be a substrate of efflux transporters, genotyping for P-gp, an efflux transporter, was also planned for this study.
Pharmacokinetics: The maximum observed serum concentration (Cmax) of grapiprant was estimated directly from raw serum concentration-time data with Tmax defined as the time of the first occurrence of Cmax. The apparent terminal elimination rate constant (kel) was estimated using least-squares regression analysis of the serum concentration-time data obtained during the terminal log-linear phase. The apparent terminal half-life (T½) was calculated as In 2/kel. Areas under the serum concentration-time curve from time 0 to the last time (Tlast) with a quantifiable concentration [AUC(Tlast)] were estimated using linear/log trapezoidal approximation. Areas under the serum concentration-time curve from time Tlast to infinity [AUC(Tlast-inf)] were estimated as Cpest/kel, where Cpest represented the estimated concentration at time Tlast based on the aforementioned regression analysis. Areas under the serum concentration-time curve from time 0 to infinity [AUC(inf)] were estimated as the sum of AUC(Tlast) and AUC(Tlast-inf). […] Individual serum concentrations of grapiprant were summarized in tabular and graphical form. Concentrations that were determined to be below the lower limit of quantification were assumed to be equal to zero for the pharmacokinetic analyses and mean concentration-time plots.
The 600 mg dose was studied in 2 separate cohorts. The second of these two cohorts was conducted to confirm safety assessments at this dose strength. For the pharmacokinetic analysis, pharmacokinetic parameters of both cohorts were pooled together and analyzed as a single group.

[1] = single 1 mg dose as OPC, fasted, healthy adults, mean
[2] = single 3 mg dose as OPC, fasted, healthy adults, mean
[3] = single 10 mg dose as OPC, fasted, healthy adults, mean
[4] = single 30 mg dose as OPC, fasted, healthy adults, mean
[5] = single 100 mg dose as OPC, fasted, healthy adults, mean
[6] = single 300 mg dose as OPC, fasted, healthy adults, mean
[7] = single 600 mg dose as OPC, fasted, healthy adults, mean
[8] = single 1000 mg dose as OPC, fasted, healthy adults, mean
[9] = single 1500 mg dose as OPC, fasted, healthy adults, mean
[10] = single 2000 mg dose as OPC, fasted, healthy adults, mean

## CCc1nc2c(C)nc(C)cc2n1-c1ccc(CCNC(=O)NS(=O)(=O)c2ccc(C)cc2)cc1 [Grapiprant, N-((4-(2-ethyl-4,6-dimethyl-1H-imidazo[4,5-c]pyridin-1-yl)phenethyl)carbamoyl)-4-methylbenzenesulfonamide]
Between the 100 mg and 600 mg dose levels, OPC, fasted
  increase of mean serum exposure parameters with dose: greater than dose-proportional increases
[1]
  AUC(0-t): 59.1 ng·h/mL
  Cmax: 6.59 ng/mL
[2]
  AUC(0-inf): 260 ng·h/mL
  AUC(0-t): 246 ng·h/mL
  Cmax: 23.1 ng/mL
[3]
  AUC(0-inf): 917 ng·h/mL
  AUC(0-t): 901 ng·h/mL
  Cmax: 110 ng/mL
[4]
  AUC(0-inf): 2150 ng·h/mL
  AUC(0-t): 2120 ng·h/mL
  Cmax: 262 ng/mL
[5]
  AUC(0-inf): 7220 ng·h/mL
  AUC(0-t): 7170 ng·h/mL
  Cmax: 1440 ng/mL
[6]
  AUC(0-inf): 31300 ng·h/mL
  AUC(0-t): 31200 ng·h/mL
  Cmax: 12000 ng/mL
[7]
  AUC(0-inf): 92500 ng·h/mL
  AUC(0-t): 92200 ng·h/mL
  Cmax: 45000 ng/mL
[8]
  AUC(0-inf): 175000 ng·h/mL
  AUC(0-t): 174000 ng·h/mL
  Cmax: 64300 ng/mL
[9]
  AUC(0-inf): 242000 ng·h/mL
  AUC(0-t): 242000 ng·h/mL
  Cmax: 83800 ng/mL
[10]
  AUC(0-inf): 479000 ng·h/mL
  AUC(0-t): 478000 ng·h/mL
  Cmax: 134000 ng/mL
1 mg, single 1 mg dose as OPC, fasted, healthy adults, median, read-out: Tmax
  Tmax: 2.5 h
3 mg, single 3 mg dose as OPC, fasted, healthy adults, mean, read-out: T½ (converted)
  half-life: 5.34 h
3 mg, single 3 mg dose as OPC, fasted, healthy adults, median, read-out: Tmax
  Tmax: 3 h
10 mg, single 10 mg dose as OPC, fasted, healthy adults, mean, read-out: T½ (converted)
  half-life: 5.1 h
10 mg, single 10 mg dose as OPC, fasted, healthy adults, median, read-out: Tmax
  Tmax: 2 h
30 mg, cohorts with clear bi-exponential decline (30 mg and above), read-out: mean terminal phase T1/2
  half-life: 6.14 to 9.41 h
30 mg, single 30 mg dose as OPC, fasted, healthy adults, mean, read-out: T½ (converted)
  half-life: 6.14 h
30 mg, single 30 mg dose as OPC, fasted, healthy adults, median, read-out: Tmax
  Tmax: 1 h
100 mg, doses of 100 mg and above, OPC, fasted, read-out: individual Tmax values
  Tmax: 0.5 to 1 h
100 mg, single 100 mg dose as OPC, fasted, healthy adults, mean, read-out: T½ (converted)
  half-life: 6.91 h
100 mg, single 100 mg dose as OPC, fasted, healthy adults, median, read-out: Tmax
  Tmax: 0.75 h
300 mg, single 300 mg dose as OPC, fasted, healthy adults, mean, read-out: T½ (converted)
  half-life: 7.98 h
300 mg, single 300 mg dose as OPC, fasted, healthy adults, median, read-out: Tmax
  Tmax: 0.75 h
600 mg, single 600 mg dose as OPC, fasted, healthy adults, mean, read-out: T½ (converted)
  half-life: 8.03 h
600 mg, single 600 mg dose as OPC, fasted, healthy adults, median, read-out: Tmax
  Tmax: 0.5 h
1000 mg, single 1000 mg dose as OPC, fasted, healthy adults, mean, read-out: T½ (converted)
  half-life: 9.41 h
1000 mg, single 1000 mg dose as OPC, fasted, healthy adults, median, read-out: Tmax
  Tmax: 1 h
1500 mg, single 1500 mg dose as OPC, fasted, healthy adults, mean, read-out: T½ (converted)
  half-life: 8.13 h
1500 mg, single 1500 mg dose as OPC, fasted, healthy adults, median, read-out: Tmax
  Tmax: 0.75 h
2000 mg, single 2000 mg dose as OPC, fasted, healthy adults, mean, read-out: T½ (converted)
  half-life: 8.25 h
2000 mg, single 2000 mg dose as OPC, fasted, healthy adults, median, read-out: Tmax
  Tmax: 1 h
Across the dose groups, 1 mg to 2000 mg OPC, fasted, read-out: median Tmax estimates
  Tmax: 0.5 to 3 h
Over the range of doses studied, OPC, fasted, read-out: mean terminal phase T1/2
  half-life: 5.1 to 9.41 h
Single oral dose of OPC formulation, about 1 mg to 2000 mg
  serum concentration-time profile: rapid absorption followed by a bi-exponential decline in serum concentration
